Assay results from patent publication US8247211B2, “Glycopeptide antibiotics” (American Cyanamid Company, priority 2001, dated 2012).

Experiments:
Assay in all cases: In vitro antibacterial evaluation: minimum inhibitory concentration (MIC), broth dilution method
Format in all cases: cell-based
[1] = test system: Enterococcus sp.; conditions: 18 hours at 35° C.
How it was run: (§1)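 Test strains, among them recent clinical isolates carrying methicillin, penicillin and/or vancomycin resistance, were inoculated at 5×10^5 CFU/mL. A broth dilution series spanning 64-0.06 μg/mL in Muller-Hinton II […] (NCCLS M7-A2) defined the MIC as the lowest growth-inhibiting concentration.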

[2] = test system: Escherichia coli; conditions: Escherichia coli (GC 4560); 18 hours at 35° C.
How it was run: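 Broth dilution per NCCLS M7-A2 in Muller-Hinton II […], inoculum 5×10^5 CFU/mL, antibiotic tested over 64-0.06 μg/mL. MIC is taken as the lowest concentration that inhibits growth. Panel includes recent clinical isolates resistant to methicillin, penicillin and/or vancomycin.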

[3] = test system: Staphylococcus sp.; conditions: 18 hours at 35° C.
How it was run: as §1

[4] = test system: Streptococcus sp.; conditions: 18 hours at 35° C.
How it was run: as §1

[5] = broth dilution, inoculum 5×10^5 CFU/mL

COc1ccc2cc(COC3C(OC4C(CO)OC(Oc5ccc(CC6NC(=O)C(C(C)c7ccccc7)NC(=O)CNC(=O)C(CO)NC(=O)C(C(O)C7CNC(=N)N7C7OC(CO)C(O)C(O)C7O)NC(=O)C(C(O)C7CNC(=N)N7)NC6=O)cc5)C(O)C4O)OC(CO)C(O)C3O)ccc2c1 (stereo not drawn) [Example 230c, Cyclo[glycyl-β-methylphenylalanyl-O-[4-O-[2-O-[(6-methoxy-2-naphthyl)methyl]hexopyranosyl]hexopyranosyl]tyrosyl-3-(2-iminoimidazolidin-4-yl)seryl-3-(3-hexopyranosyl-2-iminoimidazolidin-4-yl)serylseryl]]
16 µg/mL: MIC Streptococcus pneumoniae (GC 1894) ([4]; Streptococcus pneumoniae (GC 1894)) | MIC Streptococcus pneumoniae (GC 1894) [4, 5]
64 µg/mL: MIC Coagulase Negative Staphylococcus (GC 4547) ([3]; Coagulase Negative Staphylococcus (GC 4547)) | MIC Coagulase Negative Staphylococcus (GC 4548) ([3]; Coagulase Negative Staphylococcus (GC 4548)) | MIC Coagulase Negative Staphylococcus (GC 4549) ([3]; Coagulase Negative Staphylococcus (GC 4549)) | MIC Coagulase Negative Staphylococcus (GC 4551) ([3]; Coagulase Negative Staphylococcus (GC 4551)) | MIC Staphylococcus aureus (GC 4541) ([3]; Staphylococcus aureus (GC 4541)) | MIC Staphylococcus aureus-SMITH (GC 4543) ([3]; Staphylococcus aureus-SMITH (GC 4543)) | MIC Staphylococcus haemolyticus (GC 4546) ([3]; Staphylococcus haemolyticus (GC 4546)) | MIC Streptococcus pyogenes (GC 4563) ([4]; Streptococcus pyogenes (GC 4563)) | MIC Streptococcus pyogenes (GC 4563) [4, 5]
32 µg/mL: MIC Enterococcus faecium (GC 4557) ([1]; Enterococcus faecium (GC 4557)) | MIC Enterococcus faecium (GC 4557) [1, 5] | MIC Escherichia coli (GC 4560) [2] | MIC Coagulase Negative Staphylococcus (GC 6257) ([3]; Coagulase Negative Staphylococcus (GC 6257)) | MIC Streptococcus agalactiae (GC 4564) ([4]; Streptococcus agalactiae (GC 4564)) | MIC Streptococcus pneumoniae (ATCC 6301) ([4]; Streptococcus pneumoniae (ATCC 6301)) | MIC Streptococcus pneumoniae (GC 4565) ([4]; Streptococcus pneumoniae (GC 4565)) | MIC Streptococcus agalactiae (GC 4564) [4, 5] | MIC Streptococcus pneumoniae (ATCC 6301) [4, 5] | MIC Streptococcus pneumoniae (GC 4565) [4, 5]
